Assay results taken from US4258046A, “Pyrano-heterocycles and medicaments containing these compounds” (Hoechst Aktiengesellschaft, priority 1978, dated 1981).
Counter-ions that a name gives are not always drawn.

How the values were obtained:
[1] = system: passive cutaneous anaphylaxis (PCA) in rats; assay: Inhibition of passive cutaneous anaphylaxis (PCA) in rats on intravenous treatment; type: in vivo, Sprague-Dawley rats; details: i.v., antiserum dilution 1:16
Method: (§1) The antiserum is directed against ovalbumine and is induced in rats by combined administration of ovalbumine with Bordetella pertussis as adjuvant and boostering with Nippostrongylus larvae. 72 hours after the intracutaneous administration of the antiserum, the intravenous injection of the antigen consisting of a mixture of each time 25 mg/kg of ovalbumine and Evans blue is effected, in order to trigger the cutaneous anaphylactic reaction. The compounds of the formula I or their salts are administered, if intravenously, directly before the injection of the ovalbumine-dyestuff mixture and if administered orally, 30 minutes before the administration of the ovalbumine-dyestuff mixture. 10 Minutes after the ovalbumine-dyestuff injection, the animals are sacrificed and the diameter of spreading of the dyestuff is measured in the hypodermis.
(§2) As comparative substance, the standard preparation di- sodium-chromoglycate(DSCG) is used.

[2] = system: passive cutaneous anaphylaxis (PCA) in rats; assay: Inhibition of passive cutaneous anaphylaxis (PCA) in rats on oral treatment; type: in vivo, Sprague-Dawley rats
Method: The compounds of the invention of the formula I and their salts have strong antiallergic properties and are well tolerated on intravenous as well as oral administration in the models of passive cutaneous anaphylaxis (P C A) to rats.
as §1, with “According to the method described by J. Goose and A. M. J. N. Blair, Immunology 16, 749 (1969) a P C A is made ready on Sprague-Dawley rats by intracutaneous administration of homologous antiserum, 0.1 ml of a dilution of 1:16 and 1:32 in both flanks. The antiserum” for “The antiserum”
as §2

[3] = 10.0 mg/kg, antiserum dilution 1:16
[4] = 10.0 mg/kg, antiserum dilution 1:32

Row | SMILES | % Inhibition against control ([1]; 0.1 mg/kg) | % Inhibition against control ([1]; 0.3 mg/kg) | % Inhibition against control ([1]; 1.0 mg/kg) | % Inhibition against control ([1]; 3.0 mg/kg) | % Inhibition against control ([1]; 0.03 mg/kg) | further results
1 | CCn1c(=O)c2c(O)c([N+](=O)[O-])c(=O)oc2c2cc(Cl)c(Cl)cc21 [Example 35, 6-Ethyl-8,9-dichloro-5,6-dihydro-3-nitro-2,5-dioxo-2H-pyrano[3,2-c]quinoline-4-ol] | 20% | 53% | 73% | – | – | % Inhibition against control ([1]; 30.0 mg/kg): 100%
2 | O=C(O)c1cc(=O)c2c(OCC(O)COc3cccc4oc(C(=O)O)cc(=O)c34)cccc2o1 [DSCG, di- sodium-chromoglycate, reference compound] | 9% | 34% | 71% | – | – | activity when administered orally [2]: orally inactive; % Inhibition against control [2, 3]: 0%; % Inhibition against control [2, 4]: 0%; % Inhibition against control ([2]; 30.0 mg/kg, antiserum dilution 1:16): 5%; % Inhibition against control ([2]; 30.0 mg/kg, antiserum dilution 1:32): 0%
3 | O=c1oc2c(c(O)c1[N+](=O)[O-])c(=O)n1c3c(cc(Cl)cc23)CCC1 [Example 24, 11-Chloro-7,8-dihydro-3-nitro-2,5-dioxo-2H,5H,9H-benzo-[ij]pyrano[2,3-b]quinolizine-4-ol-sodium salt] | 12% | 50% | 89% | 100% | – | % Inhibition against control ([2]; 0.3 mg/kg, antiserum dilution 1:16): 22%; % Inhibition against control ([2]; 0.3 mg/kg, antiserum dilution 1:32): 27%; % Inhibition against control ([2]; 1.0 mg/kg, antiserum dilution 1:16): 50%; % Inhibition against control ([2]; 1.0 mg/kg, antiserum dilution 1:32): 73%; % Inhibition against control ([2]; 3.0 mg/kg, antiserum dilution 1:16): 44%; % Inhibition against control ([2]; 3.0 mg/kg, antiserum dilution 1:32): 73%; % Inhibition against control [2, 3]: 44%; % Inhibition against control [2, 4]: 73%
4 | Cn1c(=O)c2c(O)c([N+](=O)[O-])c(=O)oc2c2cc(Cl)ccc21 [Example 25, 9-Chloro-5,6-dihydro-6-methyl-3-nitro-2,5-dioxo-2H-pyrano[3,2-c]quinoline-4-ol] | 100% | – | – | – | 67% | % Inhibition against control ([1]; 0.01 mg/kg): 44%
5 | CCn1c(=O)c2c(O)c([N+](=O)[O-])c(=O)oc2c2cc(C(F)(F)F)ccc21 [Example 32, 6-Ethyl-5,6-dihydro-3-nitro-2,5-dioxo-9-trifluoromethyl-2H-pyrano[3,2-c]quinoline-4-ol] | 69% | 75% | – | 100% | 19% | –
6 | CCn1c(=O)c2c(O)c([N+](=O)[O-])c(=O)oc2c2cc(F)ccc21.[Na] [Example 31, 6-Ethyl-9-fluoro-5,6-dihydro-3-nitro-2,5-dioxo-2H-pyrano[3,2-c]quinoline-4-ol-sodium salt] | 80% | 87% | – | 100% | 60% | % Inhibition against control ([1]; 0.01 mg/kg): 27%
7 | CCn1c(=O)c2c(O)c([N+](=O)[O-])c(=O)oc2c2cc(Cl)ccc21 [Example 30, 6-Ethyl-9-chloro-5,6-dihydro-3-nitro-2,5-dioxo-2H-pyrano[3,2-c]-quinoline-4-ol] | 88% | 100% | – | – | 50% | –
